In brackets after ≈: the same amount, converted by molar mass.
How the values were obtained:
[1] = tested on: Mycobacterium tuberculosis; assay type: functional; details: H37Rv, time 6 day
[2] = tested on: HepG2; experiment: Cytotoxicity against human HepG2 cells assessed as reduction in cell viability treated for 3 days by resazurin reduction microplate assay; assay type: functional; details: HepG2, 72 h, time 3 day
[3] = tested on: Mycobacterium tuberculosis; assay type: functional, H37Rv; details: dose 200 mg/kg; route po; time 10 day
[4] = tested on: Mycobacterium tuberculosis; assay type: functional, H37Rv; details: dose 200 mg/kg; time 8 day
[5] = Cytotoxicity against African green monkey Vero cells assessed as reduction in cell viability by MTT assay; assay type: toxicity, cell-based; details: chlorocebus sabaeus
[6] = target: Voltage-gated inwardly rectifying potassium channel KCNH2 (Homo sapiens, UniProt Q12809)
Chain of Voltage-gated inwardly rectifying potassium channel KCNH2 (Q12809 whole entry): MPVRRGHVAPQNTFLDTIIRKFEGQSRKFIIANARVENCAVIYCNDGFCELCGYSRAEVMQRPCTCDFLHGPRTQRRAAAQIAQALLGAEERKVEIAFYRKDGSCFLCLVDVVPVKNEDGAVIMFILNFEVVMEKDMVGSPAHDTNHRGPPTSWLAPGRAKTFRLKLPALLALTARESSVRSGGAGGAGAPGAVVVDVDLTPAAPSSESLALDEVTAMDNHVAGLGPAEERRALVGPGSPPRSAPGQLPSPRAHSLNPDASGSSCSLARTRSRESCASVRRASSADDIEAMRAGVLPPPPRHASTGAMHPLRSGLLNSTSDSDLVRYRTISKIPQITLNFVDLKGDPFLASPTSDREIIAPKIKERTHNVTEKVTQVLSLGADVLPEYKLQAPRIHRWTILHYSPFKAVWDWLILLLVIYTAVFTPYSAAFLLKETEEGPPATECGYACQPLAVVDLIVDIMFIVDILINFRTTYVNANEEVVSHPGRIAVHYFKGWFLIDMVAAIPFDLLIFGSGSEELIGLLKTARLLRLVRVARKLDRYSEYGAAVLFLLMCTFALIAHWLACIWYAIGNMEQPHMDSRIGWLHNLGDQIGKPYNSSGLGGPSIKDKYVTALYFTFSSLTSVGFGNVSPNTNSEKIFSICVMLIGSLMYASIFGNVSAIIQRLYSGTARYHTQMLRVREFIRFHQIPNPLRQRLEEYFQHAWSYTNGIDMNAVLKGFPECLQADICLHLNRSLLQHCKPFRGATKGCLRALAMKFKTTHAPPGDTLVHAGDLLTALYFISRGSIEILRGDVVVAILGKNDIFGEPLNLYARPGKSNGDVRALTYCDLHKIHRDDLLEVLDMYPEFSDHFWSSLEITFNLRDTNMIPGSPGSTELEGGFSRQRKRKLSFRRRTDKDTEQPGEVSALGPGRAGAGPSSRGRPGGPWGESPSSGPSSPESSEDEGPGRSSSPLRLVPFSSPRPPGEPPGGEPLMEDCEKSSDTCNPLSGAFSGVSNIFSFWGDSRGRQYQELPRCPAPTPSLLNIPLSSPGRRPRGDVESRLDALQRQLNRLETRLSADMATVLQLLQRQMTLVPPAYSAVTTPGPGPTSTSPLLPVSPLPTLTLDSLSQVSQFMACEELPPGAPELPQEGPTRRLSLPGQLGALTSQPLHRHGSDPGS

[7] = Kinetic solubility of the compound; assay type: physicochemical; details: read-out: Kinetic_solubility
[8] = tested on: Mycobacterium tuberculosis; assay type: functional, H37Rv; details: dose 100 mg/kg; time 8 weeks
[9] = Kinetic aqueous solubility of the compound incubated for 4.5 hrs by LC-MS/MS analysis; assay type: physicochemical; details: buffer, read-out: Kinetic_solubility
[10] = Stability in mouse liver microsome assessed as half life by Reverse-phase HPLC analysis; assay type: ADME; details: liver microsomes
[11] = tested on: HepG2; experiment: Cytotoxicity against human HepG2 cells; assay type: functional
[12] = tested on: Mycobacterium tuberculosis; experiment: microbe, parasite or virus in culture; details: H37Rv
Description: Antibacterial activity against Mycobacterium tuberculosis H37Rv assessed as inhibition of bacterial growth

[13] = Inhibition of Mycobacterium tuberculosis ArgJ assessed as inhibition constant by measuring change in blue shift by ANS dye based displacement assay
[14] = tested on: Mycobacterium tuberculosis; assay type: functional, H37Rv; details: dose 40 mg/kg; route po; time 24 day
[15] = tested on: Mycobacterium tuberculosis; assay type: functional; details: H37Rv, 336 h, time 14 day
[16] = tested on: Mycobacterium tuberculosis; experiment: Antibacterial activity against Mycobacterium tuberculosis Erdman in acute Mtb infection BALB/c mouse model assessed as reduction in log10 CFU at 35 mg/kg, ip for 8 days; assay type: functional; details: time 8 day
[17] = tested on: Mycobacterium tuberculosis; experiment: Antibacterial activity against Mycobacterium tuberculosis in chronic Mtb infection BALB/c mouse model assessed as reduction in log10 CFU in lungs at 100 mg/kg, po for 4 weeks; assay type: functional
[18] = Half life in BALB/c mouse at 100 mg/kg, po by LC/MS analysis; assay type: ADME, organism-based; details: in vivo
[19] = tested on: Mycobacterium tuberculosis; experiment: Antibacterial activity against Mycobacterium tuberculosis in acute Mtb infection C57BL/6J mouse model assessed as reduction in log10 CFU in lungs at 350 mg/kg, po for 8 days; assay type: functional; details: time 8 day
[20] = Solubility of the compound; assay type: physicochemical
[21] = in vitro; details: human, dermal fibroblasts
Description: Cytotoxicity against human dermal fibroblasts assessed as cell growth inhibition treated for 48 hrs by resazurin dye based assay

[22] = tested on: Mycobacterium tuberculosis; assay type: functional, H37Rv; details: dose 200 mg/kg; route po; time 8 weeks
[23] = tested on: Mycobacterium tuberculosis; assay type: functional, H37Rv; details: dose 200 mg/kg; route po; time 2 weeks
[24] = physchem; details: sodium phosphate buffer, pH 7.4
[25] = Half life in Swiss-Webster mouse at 200 mg/kg, po via gavage measured after 4 hrs; assay type: ADME, organism-based; details: in vivo
[26] = Half life in mouse; assay type: ADME, organism-based; details: in vivo
[27] = tested on: HepG2; experiment: cells; details: Homo sapiens, HepG2, 40 h
Description: Cytotoxicity against human HepG2 cells treated for 40 hrs by Cell Titer Glo luminescence assay

[28] = tested on: Mycobacterium tuberculosis; assay type: functional, H37Rv; details: dose 100 mg/kg; route po; time 10 day
[29] = tested on: HepG2; experiment: Cytotoxicity against human HepG2 cells by MTT assay; assay type: functional
[30] = Cytotoxicity against African green monkey Vero cells by MTT assay; assay type: toxicity, cell-based; details: chlorocebus sabaeus
[31] = tested on: Mycobacterium tuberculosis; assay type: functional, H37Rv; details: dose 25 mg/kg; route ig; time 3 weeks
[32] = Inhibition of Mycobacterium tuberculosis ASADH expressed in Escherichia coli BL21

`O=C(/C=C/c1cccs1)N1CCN(Cc2ccc3c(c2)OCO3)CC1` gave an MIC90 [1] of 0.14 µM (≈ 0.0499 µg/mL), a CC50 [2] of 140 µM and an Activity [3] of 0.4 log10CFU.

`CCCCS(=O)(=O)Nc1ccc2cnn(C)c2c1` showed an Activity [4] of 3.5 log10CFU, a CC50 [5] of 170 µM and an IC50 [6] of over 50 µM. It also gave a solubility kinetic [7] of over 550 µM, an Activity [8] of 2.4 log10CFU and a solubility kinetic at 4.5 h [9] of 175 µM (≈ 46.8 µg/mL). For the same molecule, the half-life [10] was 0.167 h, the CC50 [11] was over 100 µM and the MIC [12] was 0.8 µM (≈ 0.214 µg/mL).

`O=C(Nc1cccc2c(=O)cc(-c3nnn[nH]3)oc12)c1ccc(OCCCCc2ccccc2)cc1` gave a Ki [13] of 139 µM, an Activity [14] of 0.5 log10CFU and an MIC90 [12] of 10 µM (≈ 4.82 µg/mL).

For `Cc1cc2oc(=O)cc(-c3cccc(N)c3)c2c(C)c1-c1ccc(CN2CCOCC2)cc1`, the MIC99 [15] was 0.24 µM (≈ 0.106 µg/mL) and the Activity [16] was 2 log10CFU.

With `Nc1nc(N)c(N=O)c(OCC2CCCCC2)n1` the Activity [17] was 0.9 log10CFU and the half-life [18] was 1 h.

With `O=S1(=O)C[C@H](O)[C@@H](N2CCN(c3ccc(F)cc3Cl)CC2)C1` the Activity [19] was 1.4 log10CFU, the solubility [20] was 434 µM (≈ 151 µg/mL) and the CC50 [11] was over 100 µM. It also gave an MIC [12] of 2.3 µM (≈ 0.802 µg/mL).

For `CNC(=O)c1c(-c2ccc(O)cc2)oc2ccc(O)c(CN3CCCCC3)c12`, the CC50 at 48 h [21] was over 100 µM, the Activity [22] was 1.9 log10CFU and the Activity [23] was 0.9 log10CFU. For the same molecule, the solubility kinetic at 24 h [24] was 74 µM (≈ 28.2 µg/mL), the MIC90 [12] was 0.13 µM (≈ 0.0495 µg/mL) and the half-life [25] was 1 h.

`CCNC(=N)NC(=O)Nc1c(CC)cccc1CC` gave a half-life [26] of 6.7 h and a CC50 [27] of over 30 µM.

In the case of `O=C(/C=C/c1nccs1)N1CCN(Cc2ccc3c(c2)OCO3)CC1`, the MIC90 [1] is reported as 0.84 µM (≈ 0.3 µg/mL), the Activity [28] is reported as 0.9 log10CFU and the CC50 [2] is reported as 210 µM.

With `O=C(Nc1nnc(C2CCCO2)o1)c1ccc([N+](=O)[O-])o1` (centres undefined) the CC50 [29] was over 218 µM, the CC50 [30] was over 218 µM and the Activity [31] was 1.7 log10CFU. It also gave an IC50 [32] of 2 µM and an MIC [12] of 1.7 µM (≈ 0.5 µg/mL).
